# Laboratory results published in PubChem BioAssay (NCI).
#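 Cultured in 96-well plates, cells were exposed to test compound for 48 hours across five concentrations. The concentration for full growth arrest is given as TGI.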
# Assays:
# Assay in all cases: DTP human tumour cell line panel, 48 h
# [1] = test system: RXF-631 renal
# [2] = test system: 786-0 renal
# [3] = test system: MALME-3M melanoma
# [4] = test system: KM12 colon
# [5] = test system: OVCAR-8 ovarian
# [6] = test system: U251 CNS
# [7] = test system: NCI-H226 lung
# [8] = test system: HOP-92 NSCLC
# [9] = test system: UO-31 renal
# [10] = test system: RXF 393 renal
# [11] = test system: SK-MEL-28 melanoma
# [12] = test system: IGROV1 ovarian
# [13] = test system: A549 NSCLC
# [14] = test system: MOLT-4 leukemia
# [15] = test system: NCI-H522 lung
# [16] = test system: XF 498 CNS
# [17] = test system: CCRF-CEM leukemia
# [18] = test system: SNB-78 CNS
# [19] = test system: SF-268 CNS
# [20] = test system: DMS 114 small cell lung
# [21] = test system: HL-60(TB) leukemia
# [22] = test system: UACC-257 melanoma
# [23] = test system: HCT-116 colon
# [24] = test system: CAKI-1 renal
# [25] = test system: SR leukemia
# [26] = test system: OVCAR-5 ovarian
# [27] = test system: SK-MEL-2 melanoma
# [28] = test system: LXFL 529 NSCLC
# [29] = test system: A498 renal
# [30] = test system: OVCAR-4 ovarian
# [31] = test system: K-562 leukemia
# [32] = test system: HOP-62 NSCLC
# [33] = test system: DMS 273 small cell lung
# [34] = test system: M14 melanoma
# [35] = test system: HCT-15 colon
# [36] = test system: SW-620 colon
# [37] = test system: SF-539 CNS
# [38] = test system: SF-295 CNS
# [39] = test system: KM20L2 colon
# [40] = test system: RPMI-8226 leukemia
# [41] = test system: HCC-2998 colon
# [42] = test system: UACC-62 melanoma
# [43] = test system: NCI-H460 lung
# [44] = test system: SNB-75 CNS
# [45] = test system: HOP-18 NSCLC
# [46] = test system: OVCAR-3 ovarian
# [47] = test system: SNB-19 CNS
# [48] = test system: SN12C renal
# [49] = test system: EKVX NSCLC
# [50] = test system: DLD-1 colon
# [51] = test system: COLO 205 colon
# [52] = test system: HT29 colon
# [53] = test system: NCI-H23 lung
# [54] = test system: ACHN renal
# [55] = test system: SK-OV-3 ovarian
# [56] = test system: SK-MEL-5 melanoma
# [57] = test system: TK-10 renal
# [58] = test system: LOX IMVI melanoma
# [59] = test system: M19-MEL melanoma
smiles,measurement,setting,value
CCN(CC)CCCNc1nccc2c(C)c3[nH]c4ccncc4c(=O)c3cc12,TGI,[1],22 µM
same,TGI,[2],11.9 µM
same,TGI,[3],14.8 µM
same,TGI,[4],15.5 µM
same,TGI,[5],2.36 µM
same,TGI,[6],11.8 µM
same,TGI,[7],10.2 µM
same,TGI,[8],7.64 µM
same,TGI,[9],43.4 µM
same,TGI,[10],3.18 µM
same,TGI,[11],13.4 µM
same,TGI,[12],21.7 µM
same,TGI,[13],14.2 µM
same,TGI,[14],2.51 µM
same,TGI,[15],1.86 µM
same,TGI,[16],6.63 µM
same,TGI,[17],8.44 µM
same,TGI,[18],13.7 µM
same,TGI,[19],4.46 µM
same,TGI,[20],2.91 µM
same,TGI,[21],8.58 µM
same,TGI,[22],31.7 µM
same,TGI,[23],2.03 µM
same,TGI,[24],16.8 µM
same,TGI,[25],2.23 µM
same,TGI,[26],19.7 µM
same,TGI,[27],9.34 µM
same,TGI,[28],11.4 µM
same,TGI,[29],24 µM
same,TGI,[30],3.07 µM
same,TGI,[31],13 µM
same,TGI,[32],16.7 µM
same,TGI,[33],11.8 µM
same,TGI,[34],9.64 µM
same,TGI,[35],> 100 µM
same,TGI,[36],16.1 µM
same,TGI,[37],11.2 µM
same,TGI,[38],28.4 µM
same,TGI,[39],40 µM
same,TGI,[40],13.7 µM
same,TGI,[41],13.4 µM
same,TGI,[42],3.72 µM
same,TGI,[43],7.04 µM
same,TGI,[44],12.6 µM
same,TGI,[45],18.7 µM
same,TGI,[46],8.88 µM
same,TGI,[47],28.4 µM
same,TGI,[48],8.9 µM
same,TGI,[49],35.7 µM
same,TGI,[50],21.8 µM
same,TGI,[51],12.5 µM
same,TGI,[52],12.8 µM
same,TGI,[53],7.34 µM
same,TGI,[54],13 µM
same,TGI,[55],16 µM
same,TGI,[56],14.1 µM
same,TGI,[57],22.5 µM
same,TGI,[58],3.26 µM
CN(CCc1ccccn1)/[N+]([O-])=N/O (tested in a mixture with another compound),TGI,[1],> 100 µM
same,TGI,[2],> 100 µM
same,TGI,[3],> 100 µM
same,TGI,[4],> 100 µM
same,TGI,[5],> 100 µM
same,TGI,[7],> 100 µM
same,TGI,[8],> 100 µM
same,TGI,[9],> 100 µM
same,TGI,[10],> 100 µM
same,TGI,[11],> 100 µM
same,TGI,[12],> 100 µM
same,TGI,[13],> 100 µM
same,TGI,[14],> 100 µM
same,TGI,[59],> 100 µM
same,TGI,[17],> 100 µM
same,TGI,[18],> 100 µM
same,TGI,[19],> 100 µM
same,TGI,[20],> 100 µM
same,TGI,[21],> 100 µM
same,TGI,[22],> 100 µM
same,TGI,[23],> 100 µM
same,TGI,[24],> 100 µM
same,TGI,[25],> 100 µM
same,TGI,[26],> 100 µM
same,TGI,[27],> 100 µM
same,TGI,[28],> 100 µM
same,TGI,[30],> 100 µM
same,TGI,[31],> 100 µM
same,TGI,[32],> 100 µM
same,TGI,[33],> 100 µM
same,TGI,[34],> 100 µM
same,TGI,[35],> 100 µM
same,TGI,[36],> 100 µM
same,TGI,[37],> 100 µM
same,TGI,[38],> 100 µM
same,TGI,[39],> 100 µM
same,TGI,[40],> 100 µM
same,TGI,[41],> 100 µM
same,TGI,[42],> 100 µM
same,TGI,[43],> 100 µM
same,TGI,[44],> 100 µM
same,TGI,[45],> 100 µM
same,TGI,[46],> 100 µM
same,TGI,[47],> 100 µM
same,TGI,[48],> 100 µM
same,TGI,[49],> 100 µM
same,TGI,[50],> 100 µM
same,TGI,[51],> 100 µM
same,TGI,[52],> 100 µM
same,TGI,[53],> 100 µM
same,TGI,[54],> 100 µM
same,TGI,[56],> 100 µM
